Test results reported in ChEMBL document CHEMBL5715945 (Cancer Biol Ther, 2010).
Calls of active or inactive are those of the source. The calls are words filed in the database; no cut-off is given here.

Experiments:
[1] = target: Insulin-like growth factor 1 receptor (Homo sapiens) (UniProt P08069); test: Inhibition of IGF-1R (unknown origin) at 1 uM relative to control; values are per cent of control
[2] = system: 4T1; test: Induction of apoptosis in mouse 4T1 cells assessed as increase in cell membrane blebbing at 0.4 to 1 uM measured after 2 days by phase contrast microscopy analysis; type: functional, cell-based; details: dose 0.4-1 µM, time 2.0 day
[3] = target: Tyrosine-protein kinase Lck (Homo sapiens) (UniProt P06239); test: Inhibition of Lck (unknown origin) at 1 uM relative to control; values are per cent of control
[4] = target: Protein kinase C alpha type (Homo sapiens) (UniProt P17252); test: Inhibition of PKCa (unknown origin) at 0.1 uM relative to control; values are per cent of control
[5] = target: Proto-oncogene tyrosine-protein kinase Src (Homo sapiens) (UniProt P12931); test: Inhibition of c-SRC (unknown origin) at 0.1 uM relative to control; values are per cent of control
[6] = Metabolic stability in human liver microsomes assessed as half life; type: ADME, Microsome
[7] = system: ID8; test: Antitumor activity against mouse ID8 cells implanted in C57BL6 mouse assessed as reduction in number of ascites-associated cells at 0.5 mg/ml administered as solution in 5% sucrose measured after 30 days; type: functional, cell-based; details: time 30.0 day
[8] = system: 4T1; test: Induction of cell cycle arrest in mouse 4T1 adherent cells assessed as accumulation at S phase at 1 uM measured after 72 hrs by PI staining based flow cytometry analysis (reference value: 15.3%); type: functional
[9] = system: 4T1; test: Inhibition of cell adhesion to fibronectin in mouse 4T1 cells at 0.4 uM incubated for 4 hrs by […]; type: functional, cell-based
[10] = target: Epidermal growth factor receptor (Homo sapiens) (UniProt P00533); test: Inhibition of EGFR (unknown origin) at 0.1 uM relative to control; values are per cent of control
[11] = system: ID8; test: Upregulation of FAK level in mouse ID8 cells harbouring mCherry red fluorescent protein at 0.1 to 1 uM incubated for 1 hr by immunoblotting analysis; type: functional, cell-based; details: dose 0.1-1 µM
[12] = system: 4T1; test: Induction of cell cycle arrest in mouse 4T1 adherent cells assessed as accumulation at S phase at 1 uM measured after 72 hrs by PI staining based flow cytometry analysis (reference value: 12.5%); type: functional
[13] = target: Aurora kinase A (Homo sapiens) (UniProt O14965); test: Inhibition of Aurora-A (unknown origin) at 1 uM relative to control
[14] = target: ALK tyrosine kinase receptor (Homo sapiens) (UniProt Q9UM73); test: Inhibition of ALK (unknown origin) at 1 uM relative to control; values are per cent of control
[15] = target: Vascular endothelial growth factor receptor 2 (Homo sapiens) (UniProt P35968); test: Inhibition of KDR (unknown origin) at 1 uM relative to control; values are per cent of control
[16] = Toxicity in C57BL6 mouse implanted with mouse ID8 cells assessed as adverse effects at 0.5 mg/ml administered as solution in 5% sucrose measured after 30 days; type: cell-based; details: id8, 720 h, time 30 day
[17] = target: Tyrosine-protein kinase ZAP-70 (Homo sapiens) (UniProt P43403); test: Inhibition of ZAP-70 (unknown origin) at 0.1 uM relative to control; values are per cent of control
[18] = system: 4T1; test: Effect on Src phosphorylation at Tyr416 residue in mouse 4T1 cells harbouring mCherry red fluorescent protein at 0.1 to 1 uM incubated for 1 hr by immunoblotting analysis; type: functional, cell-based; details: dose 0.1-1 µM
[19] = system: 4T1; test: Effect on Src phosphorylation at Y416 residue in mouse 4T1 cultured as 3D spheroids at 0.1 to 1 uM incubated for 24 hrs by immunoblotting analysis; type: functional, cell-based; details: dose 0.1-1 µM

Vascular endothelial growth factor receptor 2 (Homo sapiens), sequence (P35968 whole entry): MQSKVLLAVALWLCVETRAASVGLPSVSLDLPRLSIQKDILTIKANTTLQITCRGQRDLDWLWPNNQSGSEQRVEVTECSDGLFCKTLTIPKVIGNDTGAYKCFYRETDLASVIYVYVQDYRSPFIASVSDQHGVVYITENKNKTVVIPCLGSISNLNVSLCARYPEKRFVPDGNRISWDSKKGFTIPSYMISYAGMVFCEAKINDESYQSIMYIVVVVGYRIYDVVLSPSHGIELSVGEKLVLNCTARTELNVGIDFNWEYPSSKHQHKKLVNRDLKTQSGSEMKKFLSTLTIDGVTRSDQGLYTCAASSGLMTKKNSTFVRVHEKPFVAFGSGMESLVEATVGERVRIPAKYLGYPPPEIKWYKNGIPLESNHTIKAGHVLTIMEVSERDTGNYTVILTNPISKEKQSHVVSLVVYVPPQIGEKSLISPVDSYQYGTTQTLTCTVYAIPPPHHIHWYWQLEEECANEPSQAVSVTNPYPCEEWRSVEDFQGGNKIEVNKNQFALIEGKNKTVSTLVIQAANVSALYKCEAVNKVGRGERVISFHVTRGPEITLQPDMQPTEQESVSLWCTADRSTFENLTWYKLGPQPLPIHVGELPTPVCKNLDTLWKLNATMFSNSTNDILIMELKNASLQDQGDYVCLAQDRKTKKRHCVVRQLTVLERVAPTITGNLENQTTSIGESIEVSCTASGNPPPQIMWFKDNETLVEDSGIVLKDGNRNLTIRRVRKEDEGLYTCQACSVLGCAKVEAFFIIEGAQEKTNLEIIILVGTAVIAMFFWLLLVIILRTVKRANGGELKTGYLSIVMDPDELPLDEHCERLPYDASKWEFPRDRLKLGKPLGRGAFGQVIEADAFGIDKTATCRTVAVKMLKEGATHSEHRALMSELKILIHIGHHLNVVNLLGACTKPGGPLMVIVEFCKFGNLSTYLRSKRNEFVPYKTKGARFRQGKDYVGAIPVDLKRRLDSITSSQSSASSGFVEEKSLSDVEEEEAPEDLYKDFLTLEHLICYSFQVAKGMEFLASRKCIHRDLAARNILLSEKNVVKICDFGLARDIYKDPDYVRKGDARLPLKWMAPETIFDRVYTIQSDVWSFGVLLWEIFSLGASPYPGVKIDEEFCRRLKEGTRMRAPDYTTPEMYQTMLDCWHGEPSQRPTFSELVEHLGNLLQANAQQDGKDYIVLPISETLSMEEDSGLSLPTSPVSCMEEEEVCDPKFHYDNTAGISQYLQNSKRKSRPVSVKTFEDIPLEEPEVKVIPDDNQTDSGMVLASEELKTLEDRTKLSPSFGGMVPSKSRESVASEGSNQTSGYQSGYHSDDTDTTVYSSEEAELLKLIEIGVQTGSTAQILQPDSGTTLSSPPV
Tyrosine-protein kinase ZAP-70 (Homo sapiens), sequence (P43403 whole entry): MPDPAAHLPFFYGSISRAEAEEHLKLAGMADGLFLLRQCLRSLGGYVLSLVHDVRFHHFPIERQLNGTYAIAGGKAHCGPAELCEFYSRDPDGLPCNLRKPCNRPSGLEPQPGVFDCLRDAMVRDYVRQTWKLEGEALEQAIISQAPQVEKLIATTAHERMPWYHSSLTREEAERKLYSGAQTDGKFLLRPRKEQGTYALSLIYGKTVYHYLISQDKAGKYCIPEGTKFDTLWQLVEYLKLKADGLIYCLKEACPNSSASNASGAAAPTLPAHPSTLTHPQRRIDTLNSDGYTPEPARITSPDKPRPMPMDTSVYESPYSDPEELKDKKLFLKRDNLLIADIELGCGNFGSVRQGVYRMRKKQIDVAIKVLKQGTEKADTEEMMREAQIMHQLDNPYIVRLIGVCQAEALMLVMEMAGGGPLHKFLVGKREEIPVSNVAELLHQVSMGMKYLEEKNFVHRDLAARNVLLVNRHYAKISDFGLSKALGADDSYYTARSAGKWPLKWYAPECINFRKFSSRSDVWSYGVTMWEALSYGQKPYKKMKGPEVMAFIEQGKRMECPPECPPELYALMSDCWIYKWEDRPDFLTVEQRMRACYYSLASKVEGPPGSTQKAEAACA
Insulin-like growth factor 1 receptor (Homo sapiens), sequence (P08069 31-736 limits assumed): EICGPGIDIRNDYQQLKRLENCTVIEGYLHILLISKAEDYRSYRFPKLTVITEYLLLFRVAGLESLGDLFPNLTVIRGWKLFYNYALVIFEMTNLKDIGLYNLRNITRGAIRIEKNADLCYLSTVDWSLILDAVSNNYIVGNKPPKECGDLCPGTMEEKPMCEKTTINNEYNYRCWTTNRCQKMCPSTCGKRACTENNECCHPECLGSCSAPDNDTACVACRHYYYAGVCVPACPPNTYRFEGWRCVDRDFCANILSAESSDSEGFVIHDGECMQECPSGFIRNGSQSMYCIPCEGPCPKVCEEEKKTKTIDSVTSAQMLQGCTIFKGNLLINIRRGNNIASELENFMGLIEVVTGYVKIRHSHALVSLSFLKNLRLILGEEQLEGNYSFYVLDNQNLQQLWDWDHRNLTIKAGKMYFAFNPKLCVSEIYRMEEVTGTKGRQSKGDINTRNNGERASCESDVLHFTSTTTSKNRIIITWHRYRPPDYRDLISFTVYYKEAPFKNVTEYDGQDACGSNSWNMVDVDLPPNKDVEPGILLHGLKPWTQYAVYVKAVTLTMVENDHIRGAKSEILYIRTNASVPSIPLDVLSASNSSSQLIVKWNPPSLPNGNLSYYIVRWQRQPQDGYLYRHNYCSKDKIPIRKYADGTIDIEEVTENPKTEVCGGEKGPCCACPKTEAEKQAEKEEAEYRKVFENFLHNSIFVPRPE
Insulin-like growth factor 1 receptor (Homo sapiens), sequence (P08069 741-1367 limits assumed): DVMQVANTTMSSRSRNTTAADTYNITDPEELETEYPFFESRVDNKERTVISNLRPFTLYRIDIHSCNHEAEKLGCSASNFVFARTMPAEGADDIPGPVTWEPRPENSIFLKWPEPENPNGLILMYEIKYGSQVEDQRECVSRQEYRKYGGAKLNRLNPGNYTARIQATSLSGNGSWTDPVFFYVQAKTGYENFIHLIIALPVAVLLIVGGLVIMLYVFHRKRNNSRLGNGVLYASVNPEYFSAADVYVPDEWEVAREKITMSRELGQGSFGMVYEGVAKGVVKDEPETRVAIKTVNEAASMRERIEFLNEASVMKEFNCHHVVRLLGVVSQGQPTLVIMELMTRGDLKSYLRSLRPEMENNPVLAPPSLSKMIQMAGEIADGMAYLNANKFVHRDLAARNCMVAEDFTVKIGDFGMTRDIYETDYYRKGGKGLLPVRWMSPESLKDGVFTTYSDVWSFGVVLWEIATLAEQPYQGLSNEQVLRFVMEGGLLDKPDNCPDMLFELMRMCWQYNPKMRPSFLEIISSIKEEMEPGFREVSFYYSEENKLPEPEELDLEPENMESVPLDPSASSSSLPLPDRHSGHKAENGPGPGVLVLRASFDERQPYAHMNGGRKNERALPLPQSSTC
Tyrosine-protein kinase Lck (Homo sapiens), sequence (P06239 2-509 limits assumed): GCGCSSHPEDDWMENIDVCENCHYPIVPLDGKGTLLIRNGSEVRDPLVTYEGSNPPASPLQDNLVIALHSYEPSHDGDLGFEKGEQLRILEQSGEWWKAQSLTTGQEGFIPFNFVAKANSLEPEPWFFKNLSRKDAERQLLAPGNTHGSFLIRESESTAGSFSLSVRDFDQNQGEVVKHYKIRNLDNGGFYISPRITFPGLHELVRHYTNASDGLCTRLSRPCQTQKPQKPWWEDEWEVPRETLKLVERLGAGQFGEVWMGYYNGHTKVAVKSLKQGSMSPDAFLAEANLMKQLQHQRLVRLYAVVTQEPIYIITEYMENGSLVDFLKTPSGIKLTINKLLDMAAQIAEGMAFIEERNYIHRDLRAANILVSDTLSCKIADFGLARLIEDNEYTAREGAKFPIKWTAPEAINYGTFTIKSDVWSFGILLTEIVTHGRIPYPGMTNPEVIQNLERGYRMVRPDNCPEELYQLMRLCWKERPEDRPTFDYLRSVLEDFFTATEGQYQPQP
Proto-oncogene tyrosine-protein kinase Src (Homo sapiens), sequence (P12931 2-536 limits assumed): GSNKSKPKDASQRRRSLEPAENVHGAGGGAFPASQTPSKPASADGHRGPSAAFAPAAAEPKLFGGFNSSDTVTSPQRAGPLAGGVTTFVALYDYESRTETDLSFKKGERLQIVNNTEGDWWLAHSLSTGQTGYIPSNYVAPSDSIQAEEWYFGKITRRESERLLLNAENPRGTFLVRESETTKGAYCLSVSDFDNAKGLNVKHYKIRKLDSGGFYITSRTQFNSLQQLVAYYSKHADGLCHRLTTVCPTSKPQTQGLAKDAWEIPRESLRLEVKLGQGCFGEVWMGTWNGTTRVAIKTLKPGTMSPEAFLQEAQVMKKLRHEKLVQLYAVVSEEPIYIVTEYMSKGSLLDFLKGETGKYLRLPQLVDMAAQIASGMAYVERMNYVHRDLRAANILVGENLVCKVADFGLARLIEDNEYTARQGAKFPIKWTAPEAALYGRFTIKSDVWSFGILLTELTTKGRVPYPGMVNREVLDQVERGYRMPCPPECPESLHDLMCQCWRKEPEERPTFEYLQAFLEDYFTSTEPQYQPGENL

residual activity [1]: 110%
residual activity [3]: 32%
residual activity [4]: 101%
residual activity [5]: 98%
half-life [6]: 32 min
residual activity [10]: 99%
inhibition [13]: 8%
residual activity [14]: 127%
residual activity [15]: 107%
residual activity [17]: 70%
SMILES: CNC(=O)c1ccccc1Nc1cc(Nc2ccc(N3CCOCC3)cc2OC)ncc1C(F)(F)F [VS-4718]
Activity [2]: Active
Activity [7]: Active
Activity [8]: 23.8%
inhibition [9]: inactive
Activity [11]: Active
Activity [12]: 10%
Activity [16]: Non-Toxic
Activity [18]: inactive
Activity [19]: inactive
